Data on four compounds can be found in patent US20250020635A1, “ASSAY METHODS AND USES THEREOF FOR SCREENING ALZHEIMER'S DISEASE TREATMENT COMPOUNDS” (priority 2023, published 2025).

The assay deals with T1, PLCγ2-HiBit (Homo sapiens, UniProt P16885).
T1 construct: expressed in transfected cells; host or cells: HMC3 cells
T1 sequence (P16885 1-1265): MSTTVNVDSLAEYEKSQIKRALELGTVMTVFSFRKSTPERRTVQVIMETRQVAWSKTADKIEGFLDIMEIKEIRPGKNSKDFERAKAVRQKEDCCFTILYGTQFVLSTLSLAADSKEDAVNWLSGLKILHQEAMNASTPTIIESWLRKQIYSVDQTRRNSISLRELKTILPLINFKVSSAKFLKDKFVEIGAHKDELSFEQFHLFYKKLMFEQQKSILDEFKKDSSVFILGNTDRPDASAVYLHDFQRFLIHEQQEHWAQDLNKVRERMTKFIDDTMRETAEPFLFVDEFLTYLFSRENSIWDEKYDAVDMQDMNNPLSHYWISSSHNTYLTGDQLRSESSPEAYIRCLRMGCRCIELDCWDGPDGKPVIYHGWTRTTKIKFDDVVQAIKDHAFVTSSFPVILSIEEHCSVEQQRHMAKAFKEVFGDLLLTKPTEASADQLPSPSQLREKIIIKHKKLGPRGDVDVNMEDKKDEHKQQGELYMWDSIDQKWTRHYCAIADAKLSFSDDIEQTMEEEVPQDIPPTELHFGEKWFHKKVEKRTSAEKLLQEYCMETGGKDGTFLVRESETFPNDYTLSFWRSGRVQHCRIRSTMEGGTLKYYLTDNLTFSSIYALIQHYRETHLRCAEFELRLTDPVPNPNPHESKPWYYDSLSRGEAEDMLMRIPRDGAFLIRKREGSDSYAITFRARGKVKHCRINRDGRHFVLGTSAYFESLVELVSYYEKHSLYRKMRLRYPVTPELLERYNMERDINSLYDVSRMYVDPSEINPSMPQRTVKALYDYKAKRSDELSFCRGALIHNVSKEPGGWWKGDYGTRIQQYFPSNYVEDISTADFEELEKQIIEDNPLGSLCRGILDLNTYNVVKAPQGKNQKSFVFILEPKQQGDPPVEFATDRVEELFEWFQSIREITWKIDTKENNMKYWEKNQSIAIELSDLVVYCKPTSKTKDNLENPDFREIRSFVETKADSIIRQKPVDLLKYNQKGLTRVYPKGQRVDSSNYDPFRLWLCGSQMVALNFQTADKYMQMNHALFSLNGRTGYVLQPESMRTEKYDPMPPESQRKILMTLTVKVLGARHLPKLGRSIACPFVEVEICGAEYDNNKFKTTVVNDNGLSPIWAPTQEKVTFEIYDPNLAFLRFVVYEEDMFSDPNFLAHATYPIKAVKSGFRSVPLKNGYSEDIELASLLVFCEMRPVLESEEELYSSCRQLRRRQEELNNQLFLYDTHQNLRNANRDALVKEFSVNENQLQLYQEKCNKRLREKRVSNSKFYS
The experiment in a line: Cellular thermal shift assay (SplitLuc CETSA), PLCγ2-HiBit in HMC3 cells. In kind it is cell-based. To be noted: for PLCγ2-HiBit %, percent luminescence at highest dose compared to control (DMSO): 100 μM. An excerpt: These compounds have been evaluated using a wide variety of assay classes namely target engagement utilizing cellular thermal shift assay (CETSA),^34 affinity selection mass spectrometry (ASMS),^35 biochemical activity employing the fluorogenic probe XY-69,^36 and cellular activity testing for phagocytosis. Cellular Thermal Shift Assays (CETSA) assess cellular target engagement by quantifying changes in protein thermal stability upon ligand binding to endogenous proteins in intact cells.^34 For SAR studies, a split Nano Luciferase (SplitLuc CETSA) version of the assay was utilized to provide sufficient throughput.^37,38 HMC3 cells were stably transfected with PLCγ2-HiBit to enable protein expression in a physiologically relevant cellular context. The thermal stability of this HiBit-labeled protein in intact cells was measured in the following two formats. In the initial screen, using 96-well plates, cells were treated with FBS analogs at a single concentration (100 μM) at 37° C. for 60 min and then exposed to a 3-minute isothermal heating step at 45.9° C. (experimentally determined Tm of PLCγ2-HiBit). Luminescence detection was then conducted with the Nano-Glo HiBit Lytic detection kit (Promega, Cat. N3040).^38 Compound treatment was performed in triplicate, and raw signals were normalized to the mean of the controls (in the same plate) as % of control. When the difference in compound-treated cells >control mean+3SD, the compound was considered positive and selected for further testing with dose-response CETSA. In the dose response CETSA, cells were treated with decreasing concentrations from 100 μM with 1:3 serial dilutions to generate an 8-point curve. An AC50 was calculated with the % of control data using a four-parameter logistic curve regression model, and the percent luminescence remaining at the highest concentration is also reported for the compounds when the difference from the DMSO control is greater than 3× the standard deviation (SD). Otherwise, an AC50 was not calculated.

SMILES strings stand for the structures. Read-outs that look alike come from different tables or passages of the source.

Regarding `O=S(=O)(Nc1ccc(Br)cc1F)c1cccs1` [Compound 8], the “PLCγ2-HiBit %, percent luminescence at highest dose compared to control (DMSO)” value (“PLCγ2-HiBit %, percent luminescence” below) stood at 66%. Besides, the “PLCy2-HiBit % @100” value (Table 1) is given as 66%. Also, the AC50 (Table 1, CETSA dose response, read-out: AC50) is more than 100 µM. Besides, where the note is “Table 5, 8-point dose response from 100 μM, HMC3 cells, 45.9° C., read-out: AC50, concentration that induced a half-maximum loss of luminesce compared to control”, the AC50 was more than 100 µM.
As for `Cc1cc(C)c(S(=O)(=O)Nc2cccc(C(F)(F)F)c2)c(C)c1` [Compound 1, 2,4,6-trimethyl-N-(meta-3-trifluoromethyl-phenyl)-benzenesulfonamide, reference compound], the “PLCγ2-HiBit %, percent luminescence” value turned out to be 105%. For the same compound, the “PLCy2-HiBit % @100” value (Table 1) came out at 105%.
Regarding `Cc1cc(C)c(S(=O)(=O)NC2CCCNC2)c(C)c1` (stereo not drawn) [Compound 11], the “PLCγ2-HiBit %, percent luminescence” value turned out to be 64%.
Turning to `Cc1cc(C)c(S(=O)(=O)Nc2ccccc2C(F)(F)F)c(C)c1` [Compound 2, o-3M3FBS, reference compound], the “PLCγ2-HiBit %, percent luminescence” value came out at 102%. Besides, the “PLCy2-HiBit % @100” value (Table 1) stood at 102%.
